Measurements published in PubChem BioAssay (NCI).
Several values for one entry are separate records, joined by “and”; a condition that tells them apart may be missing. Equal values may be shown once.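 Test compounds were applied to cells in 96-well plates for 48 hours at 5 doses. Abbreviation: GI50, concentration required for 50% inhibition of growth. TGI denotes the concentration required for complete inhibition of growth.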 *1 amine or outer side, *2 acyl side, *3 side chain or, on linkers, in order; H or OH if unused. Where a SMILES comes first, the peptide text is derived from it. Bridges are numbered along the chain shown (N, C = ends). Roman numbers before positions name the chains, in order. [ ]: non-standard residue; d: D form. ξ: configuration not given here. Actinocin(1to9) = Cc1c2oc3c(C)ccc(C(=O)[*:2])c3nc-2c(C(=O)[*:1])c(N)c1=O; Pro(4-oxo) = O=C1CN[C@H](C(=O)O)C1; Thr(3ξ) = CC(O)[C@H](N)C(=O)O; NMeV = CN[C@H](C(=O)O)C(C)C; Sar = CNCC(=O)O

Columns and labels:
Test in all cases: NCI tumour cell line growth inhibition, 48 h
HL-60(TB) leukemia = test system: HL-60(TB) leukemia
SR leukemia = test system: SR leukemia
SK-MEL-28 melanoma = test system: SK-MEL-28 melanoma
EKVX NSCLC = test system: EKVX NSCLC
OVCAR-8 ovarian = test system: OVCAR-8 ovarian
RPMI-8226 leukemia = test system: RPMI-8226 leukemia
DU-145 prostate = test system: DU-145 prostate
SK-OV-3 ovarian = test system: SK-OV-3 ovarian
MALME-3M melanoma = test system: MALME-3M melanoma
HCC-2998 colon = test system: HCC-2998 colon
SN12C renal = test system: SN12C renal
PC-3 prostate = test system: PC-3 prostate
SF-539 CNS = test system: SF-539 CNS
SK-MEL-5 melanoma = test system: SK-MEL-5 melanoma
T-47D breast = test system: T-47D breast
HCT-15 colon = test system: HCT-15 colon
SF-268 CNS = test system: SF-268 CNS
U251 CNS = test system: U251 CNS
KM12 colon = test system: KM12 colon
HS 578T breast = test system: HS 578T breast
MDA-MB-468 breast = test system: MDA-MB-468 breast
NCI-H460 lung = test system: NCI-H460 lung
CCRF-CEM leukemia = test system: CCRF-CEM leukemia
NCI-H522 lung = test system: NCI-H522 lung
MDA-MB-435 = test system: MDA-MB-435
RXF 393 renal = test system: RXF 393 renal
786-0 renal = test system: 786-0 renal
SW-620 colon = test system: SW-620 colon
MDA-MB-231 breast = test system: MDA-MB-231 breast
A498 renal = test system: A498 renal
OVCAR-3 ovarian = test system: OVCAR-3 ovarian
M14 melanoma = test system: M14 melanoma
IGROV1 ovarian = test system: IGROV1 ovarian
HOP-62 NSCLC = test system: HOP-62 NSCLC
TK-10 renal = test system: TK-10 renal
HOP-92 NSCLC = test system: HOP-92 NSCLC
SNB-19 CNS = test system: SNB-19 CNS
K-562 leukemia = test system: K-562 leukemia
SNB-75 CNS = test system: SNB-75 CNS
OVCAR-5 ovarian = test system: OVCAR-5 ovarian
NCI/ADR-RES ovarian = test system: NCI/ADR-RES ovarian
SF-295 CNS = test system: SF-295 CNS
MOLT-4 leukemia = test system: MOLT-4 leukemia
OVCAR-4 ovarian = test system: OVCAR-4 ovarian
SK-MEL-2 melanoma = test system: SK-MEL-2 melanoma
COLO 205 colon = test system: COLO 205 colon
NCI-H23 lung = test system: NCI-H23 lung
BT-549 breast = test system: BT-549 breast
UACC-62 melanoma = test system: UACC-62 melanoma

Compound: Cc1c2oc3c(C)ccc(C(=O)N[C@@H]4C(=O)N[C@H](C(C)C)C(=O)N5CCC[C@H]5C(=O)N(C)CC(=O)N(C)[C@@H](C(C)C)C(=O)OC4C)c3nc-2c(C(=O)N[C@@H]2C(=O)N[C@H](C(C)C)C(=O)N3CC(=O)C[C@H]3C(=O)N(C)CC(=O)N(C)[C@@H](C(C)C)C(=O)OC2C)c(N)c1=O (some centres undefined) (I: [Thr(3ξ)][dV][Pro(4-oxo)][Sar][NMeV] / II: [Thr(3ξ)][dV]P[Sar][NMeV]; ester I:1-I:C, II:1-II:C; linker I:N-II:N via Actinocin(1to9))
- GI50 (HL-60(TB) leukemia): < 10 nM
- TGI (HL-60(TB) leukemia): 48.3 nM
- GI50 (SR leukemia): < 10 nM
- TGI (SR leukemia): < 10.4 nM
- GI50 (SK-MEL-28 melanoma): < 10 nM
- TGI (SK-MEL-28 melanoma): < 10 nM
- GI50 (EKVX NSCLC): < 10 nM
- TGI (EKVX NSCLC): < 33.2 nM
- GI50 (OVCAR-8 ovarian): < 10 nM
- TGI (OVCAR-8 ovarian): 17700 nM
- GI50 (RPMI-8226 leukemia): < 10 nM
- TGI (RPMI-8226 leukemia): 14.7 nM
- GI50 (DU-145 prostate): < 10 nM
- TGI (DU-145 prostate): 30300 nM
- GI50 (SK-OV-3 ovarian): < 10 nM
- TGI (SK-OV-3 ovarian): 490 nM
- GI50 (MALME-3M melanoma): < 10 nM
- TGI (MALME-3M melanoma): < 10 nM
- GI50 (HCC-2998 colon): < 10 nM
- TGI (HCC-2998 colon): < 11.4 nM
- GI50 (SN12C renal): < 10 nM
- TGI (SN12C renal): 579 nM
- GI50 (PC-3 prostate): < 10 nM
- TGI (PC-3 prostate): 294 nM
- GI50 (SF-539 CNS): < 10 nM
- TGI (SF-539 CNS): < 10 nM
- GI50 (SK-MEL-5 melanoma): < 10 nM
- TGI (SK-MEL-5 melanoma): < 10 nM
- GI50 (T-47D breast): < 10 nM
- TGI (T-47D breast): < 10 nM
- GI50 (HCT-15 colon): < 10 nM
- TGI (HCT-15 colon): 10100 nM
- GI50 (SF-268 CNS): < 10 nM
- TGI (SF-268 CNS): 1100 nM
- GI50 (U251 CNS): < 10 nM
- TGI (U251 CNS): 5750 nM
- GI50 (KM12 colon): < 10 nM
- TGI (KM12 colon): 6980 nM
- GI50 (HS 578T breast): < 10 nM
- TGI (HS 578T breast): 197 nM
- GI50 (MDA-MB-468 breast): < 10 nM
- TGI (MDA-MB-468 breast): < 10 nM
- GI50 (NCI-H460 lung): < 10 nM
- TGI (NCI-H460 lung): 10300 nM
- GI50 (CCRF-CEM leukemia): < 10 nM
- TGI (CCRF-CEM leukemia): 35.2 nM
- GI50 (NCI-H522 lung): < 10 nM
- TGI (NCI-H522 lung): < 10 nM
- GI50 (MDA-MB-435): < 10 nM
- TGI (MDA-MB-435): < 10 nM
- GI50 (RXF 393 renal): < 10 nM
- TGI (RXF 393 renal): < 10 nM
- GI50 (786-0 renal): < 10 nM
- TGI (786-0 renal): 10300 nM
- GI50 (SW-620 colon): < 10 nM
- TGI (SW-620 colon): 11300 nM
- GI50 (MDA-MB-231 breast): < 10 nM
- TGI (MDA-MB-231 breast): 16.7 nM
- GI50 (A498 renal): < 10 nM
- TGI (A498 renal): < 10 nM
- GI50 (OVCAR-3 ovarian): < 10 nM
- TGI (OVCAR-3 ovarian): 1980 nM
- GI50 (M14 melanoma): < 10 nM
- TGI (M14 melanoma): < 21.5 nM
- GI50 (IGROV1 ovarian): < 10 nM
- TGI (IGROV1 ovarian): 4590 nM
- GI50 (HOP-62 NSCLC): < 10 nM
- TGI (HOP-62 NSCLC): < 10 nM
- GI50 (TK-10 renal): < 10 nM
- TGI (TK-10 renal): 6400 nM
- GI50 (HOP-92 NSCLC): < 10 nM
- TGI (HOP-92 NSCLC): < 10 nM
- GI50 (SNB-19 CNS): < 10 nM
- TGI (SNB-19 CNS): 172 nM
- GI50 (K-562 leukemia): < 10 nM
- TGI (K-562 leukemia): 163 nM
- GI50 (SNB-75 CNS): < 10 nM
- TGI (SNB-75 CNS): < 10 nM
- GI50 (OVCAR-5 ovarian): < 10 nM
- TGI (OVCAR-5 ovarian): 3200 nM
- GI50 (NCI/ADR-RES ovarian): 52 nM
- TGI (NCI/ADR-RES ovarian): 1060 nM
- GI50 (SF-295 CNS): < 10 nM
- TGI (SF-295 CNS): 92 nM
- GI50 (MOLT-4 leukemia): < 10 nM
- TGI (MOLT-4 leukemia): 25.2 nM
- GI50 (OVCAR-4 ovarian): < 10 nM
- TGI (OVCAR-4 ovarian): 4600 nM
- GI50 (SK-MEL-2 melanoma): < 10 nM
- TGI (SK-MEL-2 melanoma): < 10 nM
- GI50 (COLO 205 colon): < 10 nM
- TGI (COLO 205 colon): < 10 nM
- GI50 (NCI-H23 lung): < 10 nM
- TGI (NCI-H23 lung): < 10 nM
- GI50 (BT-549 breast): < 10 nM
- TGI (BT-549 breast): < 10 nM
- GI50 (UACC-62 melanoma): < 10 nM
- TGI (UACC-62 melanoma): < 10 nM

Compound: CC(=O)N[C@H](C(=O)N[C@@H](CCCNC(=N)N)C(=O)N[C@@H](CCCCN)C(=O)N[C@@H](CCCNC(=N)N)C(=O)N[C@]1(C)CCCCCC/C=C\CCC[C@@](C)(C(=O)N[C@@H](CCCNC(=N)N)C(=O)N[C@@H](CCC(=O)O)C(=O)N[C@@H](CC(C)C)C(=O)N[C@H](C(=O)N[C@@H](CCC(=O)O)C(N)=O)C(C)C)NC(=O)[C@H](CCC(N)=O)NC(=O)[C@H](CC(C)C)NC(=O)[C@H](CC(C)C)NC(=O)[C@H](CCCNC(=N)N)NC(=O)[C@H](CCCNC(=N)N)NC(=O)[C@H](CC(C)C)NC1=O)C(C)C
- GI50 (MDA-MB-468 breast): 3820 nM
- TGI (MDA-MB-468 breast): 32600 nM

Compound: CCCCCCCCCCN=C(c1ccc(N(C)C)cc1)c1ccc(N(C)C)cc1
- GI50 (MDA-MB-468 breast): 383 nM
- TGI (MDA-MB-468 breast): 36700 nM

Compound: CCN(CC)CCNC(=O)c1c(C)[nH]c(/C=C2\C(=O)Nc3ccc(F)cc32)c1C
- GI50 (MDA-MB-468 breast): > 10000 nM and 3250 nM and 1410 nM
- TGI (MDA-MB-468 breast): > 10000 nM and 6210 nM and 4310 nM

Compound: COc1ccc(/C=C2/CCc3cc4ccc(OC)cc4[o+]c32)c(O)c1
- GI50 (MDA-MB-468 breast): 14000 nM
- TGI (MDA-MB-468 breast): 34900 nM

Compound: COc1ccc2cc(-c3ccc(-c4ccc(C(=N)N)s4)s3)ccc2c1
- GI50 (MDA-MB-468 breast): 2340 nM
- TGI (MDA-MB-468 breast): 4440 nM

Compound: CC1CCCc2c1nn(C(=O)/C=C(\N)c1ccccc1)c2N (centres undefined)
- GI50 (MDA-MB-468 breast): 11900 nM
- TGI (MDA-MB-468 breast): > 100000 nM

Compound: O=S(=O)(CCOCc1ccc(-c2ccc3ncnc(Nc4ccc(OCc5cccc(F)c5)c(Cl)c4)c3c2)o1)c1ccccc1
- GI50 (MDA-MB-468 breast): 105 nM
- TGI (MDA-MB-468 breast): 2330 nM

Compound: CNC(=O)c1cc2c(Oc3ccc(NC(=O)C4(C(=O)Nc5ccc(F)cc5)CC4)cc3)ccnc2cc1OC
- GI50 (MDA-MB-468 breast): 2880 nM
- TGI (MDA-MB-468 breast): 13500 nM

Compound: COc1cc2c(cc1-c1c(C)noc1C)cc(C)c(=O)n2Cc1ccccn1
- GI50 (MDA-MB-468 breast): 859 nM
- TGI (MDA-MB-468 breast): 4800 nM

Compound: CCN(CC)CCNC(=O)c1cn2ncnc(Oc3ccc(NC(=O)Nc4ccc(Cl)c(C(F)(F)F)c4)c(F)c3)c2c1C
- GI50 (MDA-MB-468 breast): 1570 nM
- TGI (MDA-MB-468 breast): 3200 nM

Compound: O=S1(=O)NCCCN1CCNc1nccc(-c2c(-c3cccc(O)c3)nc3sccn23)n1
- GI50 (MDA-MB-468 breast): 13300 nM
- TGI (MDA-MB-468 breast): > 86100 nM

Compound: CCCCCCCCCCCC[n+]1ccccc1 (tested in a mixture with another compound)
- GI50 (MDA-MB-468 breast): 246 nM
- TGI (MDA-MB-468 breast): 3360 nM

Compound: O=C(O)CCC(NC(=S)S)C(=O)O.[Na+].[Zn+2] (centres undefined)
- GI50 (MDA-MB-468 breast): > 50000 nM
- TGI (MDA-MB-468 breast): > 50000 nM
